Experimental findings from US10858367B2, “Compounds” (GLAXOSMITHKLINE INTELLECTUAL PROPERTY DEVELOPMENT LIMITED, priority 2017, dated 2020) are described below.

Experiment [1] concerns the target T1, LRRK2 Ser935 phosphorylation in SH-SY5Y cells over-expressing recombinant full length LRRK2 (Homo sapiens, UniProt Q5S007).
T1 construct: A BacMam virus expressing full length recombinant LRRK2 was purchased from Invitrogen; host or cells: SH-SY5Y human neuroblastoma cells transduced with BacMam LRRK2 virus
As to the kind of experiment: Recombinant cellular LRRK2 AlphaScreen assay. It counts as cell-based. The note with it: human neuroblastoma SH-SY5Y cells, BacMam full length LRRK2, 60 minutes with compound, read-out: pIC50 in the recombinant cellular LRRK2 AlphaScreen assay (converted). In a few lines: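 SH-SY5Y cells transduced with BacMam full-length human LRRK2 (MOI 50) for 24 h, then treated with compound (top final 10 μM) for 60 min at 37° C. Lysate pSer935 LRRK2 quantified by AlphaScreen using anti-pS935 and total-LRRK2 antibodies. Values from sigmoidal dose-response fit.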
Background: In Alpha technology, singlet oxygen from a donor bead excites a nearby acceptor bead.

For experiment [2], the target named is T2, full length G2019 human LRRK2 (Homo sapiens, UniProt Q5S007, R50H).
T2 construct: made in house; host or cells: HEK293 6E cells transduced with BacMam virus (virus generated in Sf9 cells)
As to the kind of experiment: Full length G2019 human LRRK2 Inhibition Mass Spectrometry assay. It counts as biochemical. The note with it: 25 nM LRRK2 enzyme, 25 uM LRRKtide, 2 mM ATP; RapidFire mass spectrometry; read-out: pIC50 in the full length G2019 human LRRK2 Inhibition Mass Spectrometry assay (converted). An excerpt: a. Full Length G2019 Human LRRK2 Inhibition Mass Spectrometry Assay
This assay for Leucine Rich Repeat Kinase 2 (LRRK2) inhibition is based on the direct measurement of the peptide ‘LRRKtide’ (LRRKtide: RLGRDKYKT*LRQIRQ and “*” refers to the site of phosphorylation.) and phosphorylated ‘LRRKtide’ using a high throughput RapidFire mass spectrometry assay. Inhibitors are compounds that reduce the conversion of LRRKtide to phospho-LRRKtide.
Human G2019 LRRK2 Plasmid Preparation
Primers used for PCR cloning: • pHTBV-F:SEQ ID No: 1 • LRRK2 wt-F1:SEQ ID No: 2 • LRRK2 wt-R1: SEQ ID No: 3 • LRRK2 wt-F2: SEQ ID No: 4 • LRRK2 wt-R2: SEQ ID No: 5 • LRRK2 wt-F3:SEQ ID No: 6 • pHTBV-R: SEQ ID No: 7 pHTBV1-N-Flag-hu LRRK2 was generated by PCR amplifying the full length LRRK2 sequence with N terminal Flag tag from pcDNA3.1(+)_Human_LRRK2 (NCBI Reference Sequence: NP_940980.3) with the primers described above, and cloned into pHTBV1mcs3 vector between BamHI and KpnI sites.
The G2019 full length Flag-LRRK2 coding sequence is SEQ ID No: 8.
The translated amino acid sequence for human G2019 full length N terminal flag tagged LRRK2 protein is SEQ ID No: 9.
Protein Expression & Purification a) Expression of Flag Tagged Full Length G2019 Human LRRK2
HEK293 6E cells were incubated in a 37° C. incubator with a humidified atmosphere of 5% CO2 on an orbital shaker rotating at 110 rpm. On the day of transduction, the cell viability was higher than 98% and the cell density was in the range of 1×10^6˜1.5×10^6 cells/ml. HEK293 6E cells were centrifuged at 1,000 rpm for 10 min, and then the cells were resuspended in fresh Freestyle 293 expression medium (Invitrogen: 12338) with 0.1% F-68(Invitrogen: 24040-032) but without antibiotics (G418) at density of 1×10^6 cells/ml. BacMam virus with Flag-hu LRRK2 (genotypically normal) gene was centrifuged at 40,000 g for 2 hours, then resuspended in fresh Freestyle 293 expression medium. The resuspended virus was added into the cells in at MOI of 10. The cells were incubated in a 37° C. incubator with a humidified atmosphere of 5% CO2 in air on an orbital shaker rotating at 110 rpm. Cultures were harvested at approximately 48 hours post-transduction by centrifugation at 4,000 rpm for 20 min and pellets were frozen for purification. […]
b) Purification of Flag Tagged Full Length G2019 Human LRRK2
The suspended cells were lysed by sonication on ice for 30 min (2 secs on/4 sec off, 20% amplitude), and centrifuged at 10,000 rpm for 30 minutes at 4° C. The supernatant was incubated with 1 mL per litre of cell culture of anti-Flag magnetic beads (Sigma-Aldrich: M8823) at 4° C. for 3 hours, then the beads were washed by 5 mL (5 column volume) binding buffer (50 mM Tris pH7.5@ 4 C, 500 mM NaCl, 0.5 mM EDTA, 0.1% TritonX-100, 10% glycerol, freshly add 2 mM DTT) for three times. The Flag tagged LRRK2 proteins were eluted by Elution buffer (50 mM Tris pH7.5@ 4 C, 500 mM NaCl, 0.5 mM EDTA, 0.1% TritonX-100, 10% glycerol, freshly add 2 mM DTT, 250 ug/ml Flag peptide (Sigma-Aldrich:F3290)) at 4° C. for 2 hours. Flag peptide was removed by Zeba Spin Desalting Columns, 7K MWCO (Thermo-Fisher: 89893) and the buffer of eluted LRRK2 proteins was exchanged into Storage Buffer (50 mM Tris pH7.5@4 C, 150 mM NaCl, 0.5 mM EDTA, 0.02% Triton X-100, 2 mM DTT and 50% Glycerol) using Amicon Ultra Centrifugal Filter Units (100 kD) (Merck: UFC910096). Fractions containing LRRK2 proteins were pooled, aliquoted and stored at −80° C. Protein concentration was determined by Bradford protein assay, and protein purity was analyzed by NuPAG Novex 4-12% Bis-Tris Protein Gels (Invitrogen: NP0322BOX).
Assay Protocol • 1) A 10 mM test compound was dissolved in 100% DMSO and serially diluted 1 in 4. 100 nL of this dilution series was then added to a 384 well, v bottom polypropylene plate, excluding columns 6 and 18. 100 nL of DMSO was added to columns 6 and 18 as controls wells. […]

T1 sequence (Q5S007 whole entry): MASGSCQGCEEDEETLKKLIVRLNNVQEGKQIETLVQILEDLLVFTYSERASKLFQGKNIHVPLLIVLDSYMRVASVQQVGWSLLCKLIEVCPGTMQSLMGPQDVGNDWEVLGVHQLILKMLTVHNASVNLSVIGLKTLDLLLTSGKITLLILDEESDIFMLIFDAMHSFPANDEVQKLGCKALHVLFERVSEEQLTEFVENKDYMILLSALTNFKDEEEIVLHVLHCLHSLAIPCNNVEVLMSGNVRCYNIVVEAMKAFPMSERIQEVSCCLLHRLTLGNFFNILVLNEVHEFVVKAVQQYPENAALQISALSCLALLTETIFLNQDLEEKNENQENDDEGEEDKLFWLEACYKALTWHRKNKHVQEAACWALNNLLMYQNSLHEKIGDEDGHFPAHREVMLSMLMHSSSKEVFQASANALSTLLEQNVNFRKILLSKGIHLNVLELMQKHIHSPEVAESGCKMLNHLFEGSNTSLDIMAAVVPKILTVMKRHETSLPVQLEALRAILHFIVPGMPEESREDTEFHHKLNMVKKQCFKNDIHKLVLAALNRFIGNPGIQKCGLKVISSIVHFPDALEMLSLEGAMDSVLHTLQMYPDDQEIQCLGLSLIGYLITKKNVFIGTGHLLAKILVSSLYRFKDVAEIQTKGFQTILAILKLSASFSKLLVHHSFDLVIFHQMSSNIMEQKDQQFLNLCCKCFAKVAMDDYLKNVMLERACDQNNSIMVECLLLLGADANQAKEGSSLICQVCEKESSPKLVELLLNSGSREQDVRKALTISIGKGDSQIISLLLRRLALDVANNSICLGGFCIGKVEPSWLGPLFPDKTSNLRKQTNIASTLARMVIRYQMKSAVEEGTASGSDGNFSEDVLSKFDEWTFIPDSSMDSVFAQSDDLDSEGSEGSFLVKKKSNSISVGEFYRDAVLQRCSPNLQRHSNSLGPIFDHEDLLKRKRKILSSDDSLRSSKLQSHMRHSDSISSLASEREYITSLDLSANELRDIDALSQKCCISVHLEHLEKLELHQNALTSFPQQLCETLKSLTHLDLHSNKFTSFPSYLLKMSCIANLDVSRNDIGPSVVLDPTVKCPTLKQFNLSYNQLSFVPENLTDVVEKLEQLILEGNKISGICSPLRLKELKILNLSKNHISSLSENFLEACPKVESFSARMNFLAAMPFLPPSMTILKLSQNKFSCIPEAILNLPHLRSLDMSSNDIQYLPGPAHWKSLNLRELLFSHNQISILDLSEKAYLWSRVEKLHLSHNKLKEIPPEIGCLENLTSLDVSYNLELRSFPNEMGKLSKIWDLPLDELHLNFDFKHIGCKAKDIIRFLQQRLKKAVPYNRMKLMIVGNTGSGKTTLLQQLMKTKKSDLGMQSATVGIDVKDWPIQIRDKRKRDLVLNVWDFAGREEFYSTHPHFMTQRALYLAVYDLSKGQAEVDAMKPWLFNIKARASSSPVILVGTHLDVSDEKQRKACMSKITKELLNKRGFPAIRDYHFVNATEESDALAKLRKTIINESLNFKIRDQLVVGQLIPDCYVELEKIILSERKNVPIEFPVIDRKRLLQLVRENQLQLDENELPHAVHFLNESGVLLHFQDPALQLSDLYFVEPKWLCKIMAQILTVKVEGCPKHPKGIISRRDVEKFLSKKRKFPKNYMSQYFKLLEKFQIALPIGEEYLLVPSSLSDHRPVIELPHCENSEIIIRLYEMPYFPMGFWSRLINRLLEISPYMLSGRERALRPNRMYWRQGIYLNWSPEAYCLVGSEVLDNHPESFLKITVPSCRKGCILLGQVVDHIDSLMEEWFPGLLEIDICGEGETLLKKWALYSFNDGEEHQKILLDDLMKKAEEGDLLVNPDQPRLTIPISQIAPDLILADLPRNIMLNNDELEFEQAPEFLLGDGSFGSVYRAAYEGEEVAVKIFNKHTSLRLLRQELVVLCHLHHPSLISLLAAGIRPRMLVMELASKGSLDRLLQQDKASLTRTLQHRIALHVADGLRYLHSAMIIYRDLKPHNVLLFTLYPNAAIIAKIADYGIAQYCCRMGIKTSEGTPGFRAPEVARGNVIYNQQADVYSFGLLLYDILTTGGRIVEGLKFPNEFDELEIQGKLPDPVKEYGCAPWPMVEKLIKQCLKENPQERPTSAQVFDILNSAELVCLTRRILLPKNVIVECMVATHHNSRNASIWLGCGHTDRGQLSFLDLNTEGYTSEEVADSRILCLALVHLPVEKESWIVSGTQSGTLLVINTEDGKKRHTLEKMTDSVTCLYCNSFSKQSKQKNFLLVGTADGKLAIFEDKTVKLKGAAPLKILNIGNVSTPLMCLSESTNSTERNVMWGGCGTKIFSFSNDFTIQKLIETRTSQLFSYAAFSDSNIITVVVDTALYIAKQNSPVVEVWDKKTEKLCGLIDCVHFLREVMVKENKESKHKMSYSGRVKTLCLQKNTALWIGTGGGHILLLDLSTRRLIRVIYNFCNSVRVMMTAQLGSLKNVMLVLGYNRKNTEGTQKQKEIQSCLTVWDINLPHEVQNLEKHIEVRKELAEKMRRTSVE
T2 sequence (Q5S007 with tags, fused parts or gaps R50H): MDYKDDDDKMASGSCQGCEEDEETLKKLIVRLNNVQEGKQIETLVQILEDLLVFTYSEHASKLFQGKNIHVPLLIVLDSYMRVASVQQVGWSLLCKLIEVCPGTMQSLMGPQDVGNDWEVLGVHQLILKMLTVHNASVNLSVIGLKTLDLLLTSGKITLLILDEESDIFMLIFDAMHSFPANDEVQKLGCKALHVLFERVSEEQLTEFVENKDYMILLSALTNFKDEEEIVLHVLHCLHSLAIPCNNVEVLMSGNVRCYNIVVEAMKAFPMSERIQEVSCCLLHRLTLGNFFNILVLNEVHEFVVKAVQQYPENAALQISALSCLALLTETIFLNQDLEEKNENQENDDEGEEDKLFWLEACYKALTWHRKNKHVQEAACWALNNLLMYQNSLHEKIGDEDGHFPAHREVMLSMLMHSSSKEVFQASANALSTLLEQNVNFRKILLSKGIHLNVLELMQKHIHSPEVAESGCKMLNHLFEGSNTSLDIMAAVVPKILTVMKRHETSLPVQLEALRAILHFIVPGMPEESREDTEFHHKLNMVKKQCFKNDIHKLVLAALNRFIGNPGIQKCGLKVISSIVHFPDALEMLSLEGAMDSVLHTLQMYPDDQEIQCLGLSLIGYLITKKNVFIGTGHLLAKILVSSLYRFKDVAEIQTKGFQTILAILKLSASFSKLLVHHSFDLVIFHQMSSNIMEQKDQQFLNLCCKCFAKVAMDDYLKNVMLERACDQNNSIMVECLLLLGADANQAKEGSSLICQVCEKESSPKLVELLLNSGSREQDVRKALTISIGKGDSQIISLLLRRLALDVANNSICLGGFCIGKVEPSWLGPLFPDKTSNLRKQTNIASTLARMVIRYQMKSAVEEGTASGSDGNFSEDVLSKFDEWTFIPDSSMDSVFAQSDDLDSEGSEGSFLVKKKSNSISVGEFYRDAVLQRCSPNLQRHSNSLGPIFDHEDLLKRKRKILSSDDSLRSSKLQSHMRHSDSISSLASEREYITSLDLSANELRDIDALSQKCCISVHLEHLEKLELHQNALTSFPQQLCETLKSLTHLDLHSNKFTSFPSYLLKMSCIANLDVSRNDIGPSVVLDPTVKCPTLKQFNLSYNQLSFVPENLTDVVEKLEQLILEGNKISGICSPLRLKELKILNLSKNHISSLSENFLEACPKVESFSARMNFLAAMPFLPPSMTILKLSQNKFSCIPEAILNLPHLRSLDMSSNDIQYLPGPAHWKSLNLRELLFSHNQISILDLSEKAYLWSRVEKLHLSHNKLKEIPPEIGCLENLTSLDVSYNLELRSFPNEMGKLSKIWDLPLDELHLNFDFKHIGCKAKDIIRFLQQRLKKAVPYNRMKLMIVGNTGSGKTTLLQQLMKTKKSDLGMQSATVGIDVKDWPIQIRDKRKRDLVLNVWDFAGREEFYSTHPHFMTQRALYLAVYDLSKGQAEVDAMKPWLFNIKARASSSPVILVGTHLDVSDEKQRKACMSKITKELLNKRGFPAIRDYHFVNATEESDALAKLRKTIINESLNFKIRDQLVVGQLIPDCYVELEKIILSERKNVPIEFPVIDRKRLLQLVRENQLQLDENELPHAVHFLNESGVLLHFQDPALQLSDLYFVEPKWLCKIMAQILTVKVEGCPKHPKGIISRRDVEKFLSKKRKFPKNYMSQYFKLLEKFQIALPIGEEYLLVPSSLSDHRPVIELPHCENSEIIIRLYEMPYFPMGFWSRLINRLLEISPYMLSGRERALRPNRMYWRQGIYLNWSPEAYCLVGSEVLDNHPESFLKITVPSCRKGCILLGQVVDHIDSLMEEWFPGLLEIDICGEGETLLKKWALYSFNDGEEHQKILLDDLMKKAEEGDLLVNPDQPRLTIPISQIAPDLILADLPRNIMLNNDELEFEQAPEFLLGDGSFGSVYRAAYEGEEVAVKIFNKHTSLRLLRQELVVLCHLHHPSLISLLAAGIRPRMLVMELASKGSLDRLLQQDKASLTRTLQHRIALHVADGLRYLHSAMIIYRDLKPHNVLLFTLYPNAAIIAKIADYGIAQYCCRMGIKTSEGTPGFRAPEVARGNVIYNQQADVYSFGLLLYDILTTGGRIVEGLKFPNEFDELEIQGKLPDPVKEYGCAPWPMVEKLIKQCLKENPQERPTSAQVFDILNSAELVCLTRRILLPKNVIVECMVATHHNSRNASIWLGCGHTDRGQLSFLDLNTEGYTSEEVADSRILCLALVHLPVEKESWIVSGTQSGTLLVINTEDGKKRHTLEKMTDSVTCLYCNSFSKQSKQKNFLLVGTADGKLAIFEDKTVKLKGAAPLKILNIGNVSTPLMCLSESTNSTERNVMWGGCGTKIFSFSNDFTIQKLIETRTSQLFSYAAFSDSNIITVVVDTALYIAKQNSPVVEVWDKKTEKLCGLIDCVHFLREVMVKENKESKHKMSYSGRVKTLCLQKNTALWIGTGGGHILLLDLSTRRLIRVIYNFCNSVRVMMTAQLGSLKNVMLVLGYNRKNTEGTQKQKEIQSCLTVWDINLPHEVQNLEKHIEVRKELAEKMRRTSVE

For `COc1nc(N2C[C@H]3C[C@@H]2CO3)cc(-n2ncc3cc(C)c(C4CCN(CCC(=O)O)CC4)cc32)n1` [Example E164, 3-(4-(1-(6-((1R,4R)-2-oxa-5-azabicyclo[2.2.1]heptan-5-yl)-2-methoxypyrimidin-4-yl)-5-methyl-1H-indazol-6-yl)piperidin-1-yl)propanoic Acid], the IC50 in experiment [1] was ≤ 1000 nM; in experiment [2], ≤ 100 nM.
On to `COc1nc(N2C[C@@]3(CO)C[C@@H]2CO3)cc(-n2ncc3cc(C)c(C4CCOCC4)cc32)n1` [Example E178, ((1R,4R)-5-(2-methoxy-6-(5-methyl-6-(tetrahydro-2H-pyran-4-yl)-1H-indazol-1-yl)pyrimidin-4-yl)-2-oxa-5-azabicyclo[2.2.1]heptan-1-yl)methanol], for which the IC50 in experiment [1] and in experiment [2] was ≤ 10 nM throughout.
For the molecule `Cc1nc(N2C[C@H]3C[C@@H]2CO3)cc(-n2ncc3cc(C)c(C4CCN(CCC(=O)O)CC4)cc32)n1` [Example E162, 3-(4-(1-(6-((1R,4R)-2-oxa-5-azabicyclo[2.2.1]heptan-5-yl)-2-methylpyrimidin-4-yl)-5-methyl-1H-indazol-6-yl)piperidin-1-yl)propanoic Acid], the IC50 was ≤ 1000 nM in experiment [1] and ≤ 100 nM in experiment [2].
